Here are results for 32 molecules from patent US20260001889A1, “COMPOSITIONS USEFUL FOR MODULATING SPLICING” (Skyhawk Therapeutics, Inc., priority 2022, published 2026).

In the experiment the test system is ATXN3-HiBiT protein. The experiment in a line: ATXN3 Total Protein Assay (Kelly-ATXN3-HiBiT luminescence). The experiment is classed as cell-based. The note with it: Kelly-ATXN3-HiBiT cells, 48 h after addition of compound. The text has this:
Example 36: ATXN3 Total Protein Assay
To monitor ATXN3 protein levels by luminescence, a Kelly-ATXN3-HiBiT cell line with homozygous knock-in of HiBiT at the C-terminus of the endogenous ATXN3 gene was used (knock-in of the HiBiT-tag coding sequence SEQ ID NO. 14: 5′[…]3′ into exon 11 of ATXN3-position 1114 of ATXN3 RefSeq NM_004993.6). Manipulations of the Kelly-ATXN3-HiBiT cell line that result in downregulation of the ATXN3-HiBiT protein (through modulation of ATXN3-HiBiT pre-mRNA splicing) can be followed by monitoring the luminescence signal of the HiBiT tag using the Nano Glo HiBiT Lytic Detection System (Promega, #N3050). Kelly-ATXN3-HiBiT cells were maintained in RPMI 1640 w/Glutamax (Gibco, #61870010), 10% FBS (Sigma Aldrich, #F8687), 1% Penicillin/Streptomycin (Gibco, #15140-122) at 37° C., 5% CO2. To assess HiBiT-luminescence signal upon compound treatment, 2000 Kelly-ATXN3-HiBiT cells were seeded per well in 384 plate format. Compounds were added 24 h after seeding. ATXN3-HiBiT-luminescence signal was read out 48 h after addition of the compound using the Nano Glo HiBiT Lytic Detection System (Promega, #N3050) according to the manufacturer's instructions. To control for cell viability, an identically prepared sister plate was read out with the CellTiter-Glo® 2.0 Assay (Promega, #G9243) according to the manufacturer's instructions. Fold changes of ATXN3-HiBiT-luminescence and of CellTiter-Glo viability signals were calculated relative to a DMSO control condition.
As to `[2H]C([2H])([2H])OC[C@H](N)Cc1oc2c(NC([2H])([2H])c3cccs3)cc(Cl)nc2c1Br` [Compound 249, 2-[(R)-2-amino-3-(^2H3)methoxypropyl]-3-bromo-5-chloro-7-{[(2-thienyl)(^2H2)methyl]amino}-1-oxa-4-azaindene], the concentration giving a half-maximal response (EC50) was 0.01 to 100 nM.
With `[2H]C([2H])([2H])OC[C@H](N)Cc1oc2c(NC([2H])([2H])c3cccs3)cc(Cl)nc2c1C#C` [Compound 250, 2-[(R)-2-amino-3-(^2H3)methoxypropyl]-5-chloro-3-ethynyl-7-{[(2-thienyl)(^2H2)methyl]amino}-1-oxa-4-azaindene] the figure was 0.01 to 100 nM; with `[2H]C([2H])([2H])OC[C@H](N)Cc1oc2c(NCc3cccs3)cc(Cl)nc2c1Cl` [Compound 264, 2-[(R)-2-amino-3-(^2H3)methoxypropyl]-3,5-dichloro-7-thenylamino-1-oxa-4-azaindene], 0.01 to 100 nM.
Next, `[2H]C([2H])([2H])OC[C@H](N)Cc1oc2c(NCc3ccco3)cc(Cl)nc2c1Cl` [Compound 265, 2-[(R)-2-amino-3-(^2H3)methoxypropyl]-3,5-dichloro-7-(furfurylamino)-1-oxa-4-azaindene]: 0.01 to 100 nM.
With `C#Cc1c(C[C@@H](N)CCOC)oc2c(NCc3cccs3)cc(Cl)nc12` [Compound 266, 2-[(S)-2-amino-4-methoxybutyl]-5-chloro-3-ethynyl-7-thenylamino-1-oxa-4-azaindene] the figure was 0.01 to 100 nM; with `[2H]C([2H])([2H])OCC[C@H](N)Cc1oc2c(NCc3cccs3)cc(Cl)nc2c1Br` [Compound 267, 2-[(S)-2-amino-4-(^2H3)methoxybutyl]-3-bromo-5-chloro-7-thenylamino-1-oxa-4-azaindene], 101 to 500 nM.
With `[2H][C@@](C)(N)Cc1oc2c(NCc3cccs3)cc(Cl)nc2c1C#C` [Compound 268, 2-[(S)-2-amino(2-^2H)propyl]-5-chloro-3-ethynyl-7-thenylamino-1-oxa-4-azaindene], the EC50 was in the range of 0.01 to 100 nM.
`[2H]C([2H])([2H])C(N)Cc1oc2c(NCc3cccs3)cc(Cl)nc2c1C#C` (centres unmarked) [Compound 269, 2-[2-amino(3,3,3-^2H3)propyl]-5-chloro-3-ethynyl-7-thenylamino-1-oxa-4-azaindene]: the EC50 fell in the range of 0.01 to 100 nM.
With `[2H]C([2H])([2H])[C@H](N)Cc1oc2c(NCc3cccs3)cc(Cl)nc2c1C#C` [Compound 270, 2-[(S)-2-amino(3,3,3-^2H3)propyl]-5-chloro-3-ethynyl-7-thenylamino-1-oxa-4-azaindene] the figure was 0.01 to 100 nM; with `[2H]C([2H])([2H])[C@@H](N)Cc1oc2c(NCc3cccs3)cc(Cl)nc2c1C#C` [Compound 271, 2-[(R)-2-amino(3,3,3-^2H3)propyl]-5-chloro-3-ethynyl-7-thenylamino-1-oxa-4-azaindene], 101 to 500 nM; with `[2H]C([2H])([2H])OCC[C@H](N)Cc1oc2c(NCc3cccs3)cc(Cl)nc2c1Cl` [Compound 273, 2-[(S)-2-amino-4-(^2H3)methoxybutyl]-3,5-dichloro-7-thenylamino-1-oxa-4-azaindene], 101 to 500 nM.
With `COCC[C@H](N)Cc1oc2c(NCc3cccs3)cc(Cl)nc2c1Cl` [Compound 274, 2-[(S)-2-amino-4-methoxybutyl]-3,5-dichloro-7-thenylamino-1-oxa-4-azaindene] the figure was 101 to 500 nM; with `Clc1cc(NCc2cccs2)c2occ(Br)c2n1` [Compound 279, (thenyl)(3-bromo-5-chloro-1-oxa-4-aza-7-indenyl)amine], 101 to 500 nM.
`Clc1cc(NCc2ccncc2)c2occ(Br)c2n1` [Compound 280, [(4-pyridyl)methyl](3-bromo-5-chloro-1-oxa-4-aza-7-indenyl)amine] yielded an EC50 of 10000 to 40000 nM.
In the case of `C#Cc1c(C[C@@H](N)CC2(O)CC2)oc2c(NCc3cccs3)cc(Cl)nc12` [Compound 281, 1-[(2S)-2-amino-3-{5-chloro-3-ethynyl-7-[(thiophen-2-ylmethyl)amino]furo[3,2-b]pyridin-2-yl}propyl]cyclopropan-1-ol], the EC50 is 501 to 5000 nM.
For the molecule `[2H]C([2H])([2H])OC[C@]([2H])(N)Cc1oc2c(NCc3cccs3)cc(Cl)nc2c1Cl` [Compound 282, 2-[(R)-2-amino-3-(^2H3)methoxy(2-2H)propyl]-3,5-dichloro-7-thenylamino-1-oxa-4-azaindene], the EC50 was 0.01 to 100 nM.
Next, `[2H][C@](N)(COC)Cc1oc2c(NCc3cccs3)cc(Cl)nc2c1Cl` [Compound 283, 2-[(R)-2-amino-3-methoxy(2-^2H)propyl]-3,5-dichloro-7-thenylamino-1-oxa-4-azaindene]: 0.01 to 100 nM; `[2H]C([2H])([2H])OC[C@]([2H])(N)Cc1oc2c(NCc3cccs3)cc(Cl)nc2c1Br` [Compound 284, 2-[(R)-2-amino-3-(^2H3)methoxy(2-2H)propyl]-3-bromo-5-chloro-7-thenylamino-1-oxa-4-azaindene]: 0.01 to 100 nM.
Next, `[2H]C([2H])([2H])OC[C@]([2H])(N)Cc1oc2c(NCc3cccs3)cc(Cl)nc2c1C#C` [Compound 286, 2-[(R)-2-amino-3-(^2H3)methoxy(2-2H)propyl]-5-chloro-3-ethynyl-7-thenylamino-1-oxa-4-azaindene]: 0.01 to 100 nM; `[2H][C@](N)(COC)Cc1oc2c(NCc3cccs3)cc(Cl)nc2c1C#C` [Compound 287, 2-[(R)-2-amino-3-methoxy(2-^2H)propyl]-5-chloro-3-ethynyl-7-thenylamino-1-oxa-4-azaindene]: 0.01 to 100 nM; `[2H]C([2H])(c1oc2c(NCc3cccs3)cc(Cl)nc2c1Br)[C@H](C)N` [Compound 292, 2-[(S)-2-amino(1,1-^2H2)propyl]-3-bromo-5-chloro-7-thenylamino-1-oxa-4-azaindene]: 0.01 to 100 nM.
With `[2H]C([2H])(c1oc2c(NCc3cccs3)cc(Cl)nc2c1Cl)[C@H](C)N` [Compound 293, 2-[(S)-2-amino(1,1-^2H2)propyl]-3,5-dichloro-7-thenylamino-1-oxa-4-azaindene] the figure was 0.01 to 100 nM; with `[2H]C([2H])(OC)[C@H](N)Cc1oc2c(NCc3cccs3)cc(Cl)nc2c1Br` [Compound 296, 2-[(R)-2-amino-3-methoxy(3,3- ^2H2)propyl]-3-bromo-5-chloro-7-thenylamino-1-oxa-4-azaindene], 0.01 to 100 nM.
As for `[2H]C([2H])([2H])OC([2H])([2H])[C@H](N)Cc1oc2c(NCc3cccs3)cc(Cl)nc2c1Br` [Compound 297, 2-[(R)-2-amino-3-(^2H3)methoxy(3,3- ^2H2)propyl]-3-bromo-5-chloro-7-thenylamino-1-oxa-4-azaindene], the EC50 was 0.01 to 100 nM.
`[2H]C([2H])(OC(F)F)[C@H](N)Cc1oc2c(NCc3cccs3)cc(Cl)nc2c1Br` [Compound 298, 2-[(R)-2-amino-3-difluoromethoxy(3,3- ^2H2)propyl]-3-bromo-5-chloro-7-thenylamino-1-oxa-4-azaindene] yielded an EC50 of 0.01 to 100 nM.
With `[2H]C([2H])(F)[C@H](N)Cc1oc2c(NCc3cccs3)cc(Cl)nc2c1Br` [Compound 299, 2-[(R)-2-amino-3-fluoro(3,3-^2H2)propyl]-3-bromo-5-chloro-7-thenylamino-1-oxa-4-azaindene] the figure was 0.01 to 100 nM; with `[2H]C([2H])(OC)[C@H](N)Cc1oc2c(NCc3cccs3)cc(Cl)nc2c1C#C` [Compound 300, 2-[(R)-2-amino-3-methoxy(3,3- ^2H2)propyl]-5-chloro-3-ethynyl-7-thenylamino-1-oxa-4-azaindene], 0.01 to 100 nM.
With `[2H]C([2H])([2H])OC([2H])([2H])[C@H](N)Cc1oc2c(NCc3cccs3)cc(Cl)nc2c1C#C` [Compound 301, 2-[(R)-2-amino-3-(^2H3)methoxy(3,3- ^2H2)propyl]-5-chloro-3-ethynyl-7-thenylamino-1-oxa-4-azaindene] the figure was 0.01 to 100 nM; with `[2H]C([2H])(OC(F)F)[C@H](N)Cc1oc2c(NCc3cccs3)cc(Cl)nc2c1C#C` [Compound 302, 2-[(R)-2-amino-3-difluoromethoxy(3,3- ^2H2)propyl]-5-chloro-3-ethynyl-7-thenylamino-1-oxa-4-azaindene], 0.01 to 100 nM; with `[2H]C([2H])(c1oc2c(NCc3cccs3)cc(Cl)nc2c1Br)[C@@H](N)CF` [Compound 305, 2-[(R)-2-amino-3-fluoro(1,1-^2H2)propyl]-3-bromo-5-chloro-7-thenylamino-1-oxa-4-azaindene], 0.01 to 100 nM.
With `[2H]C([2H])([2H])OCC[C@H](N)Cc1oc2c(NCc3cccs3)cc(Cl)nc2c1C#C` [Compound 320, 2-[(S)-2-amino-4-(^2H3)methoxybutyl]-5-chloro-3-ethynyl-7-thenylamino-1-oxa-4-azaindene] the figure was 0.01 to 100 nM.
`[2H]C([2H])(c1oc2c(NCc3cccs3)cc(Cl)nc2c1C#C)[C@H](C)N` [Compound 327, 2-[(S)-2-amino(1,1-^2H2)propyl]-5-chloro-3-ethynyl-7-thenylamino-1-oxa-4-azaindene] came in with an EC50 of 0.01 to 100 nM.
